Experiment [1] addresses T1, human serotonin transporter (hSERT) (Homo sapiens, UniProt P31645).
T1 construct: expressed in transfected cells; host or cells: HEK-293
Put plainly: Screening for human serotonin transporter (hSERT) antagonists using a scintillation proximity assay, competition with [3H]-Citalopram. The class given is binding. Particulars: hSERT SPA, membranes of HEK-293 cells expressing recombinant hSERT. The protocol: The screening assay of this example was used to determine the affinity of ligands at the hSERT transporter by competition with [^3H]-Citalopram.
Scintillation Proximity Assay (SPA) works by bringing radioligand within close proximity to the bead's scintillant to stimulate light emission. In this assay, the receptor-containing membranes were pre-coupled to the SPA beads and the binding of the appropriate radioligand to the transporter was measured. The light emission was proportional to the amount of bound radioligand. Unbound radioligand produced no signal as a result of distant proximity to scintillant (lack of energy transfer). […]
(§1) Cell membranes were prepared using a membrane preparation buffer of 50 mM TRIS (pH 7.4). […] After a second centrifugation, the pellet was re-homogenized and brought to a final volume determined during the assay. […]
The % inhibition was calculated for each compound tested [(Compound counts per minute (CPM) at maximum concentration-Non-Specific CPM)/Total CPM*100]. […]
[formula] where max=total binding, min=non specific binding, x=concentration (M) of the tested compound and n=Hill slope. The inhibition dissociation constant (Ki) of each compound was determined according to the method of Cheng-Prusoff and then converted into negative logarithm (pKi) of the Ki.
On the technique in general: SPA uses beads or plates that emit light when radiolabelled molecules are held near them.

In experiment [2] the target is T2, human norepinephrine transporter (hNET) (Homo sapiens, UniProt P23975).
T2 construct: expressed in transfected cells; host or cells: HEK-293 (Clone: HEK-hNET #2)
The experiment in a line: Screening for compounds active at human norepinephrine transporter (hNET) using a scintillation proximity assay, competition with [3H]-Nisoxetine. The class given is binding. The conditions noted are these: hNET SPA, membranes of HEK-293 cells expressing recombinant hNET. The protocol:
This assay was used to determine the affinity of ligands for the hNET transporter by competition with [^3H]-Nisoxetine. As in the hSERT assay of the above example, receptor-containing membranes were pre-coupled to the SPA beads and the binding of the appropriate radioligand to the transporter was measured. The light emission was proportional to the amount of bound radioligand, with unbound radioligand producing no signal.
HEK-293 cells (Tatsumi et al., Eur. J. Pharmacol. 1997, 30, 249-258) stably expressing recombinant hNET (Clone: HEK-hNET #2) were maintained with media (DMEM hi glucose with 10% FBS, 300 μg/ml G418 and 2 mM L-Glutamine) and incubated at 37° C. with 5% CO2. Cells were released from culture flasks using PBS for 1-2 minutes. […]
as §1
^3[H] […] The mixtures were allowed to stand at room temperature for one hour, and were then counted on a Packard TopCount LCS, a generic SPA counting protocol settings (Energy Range: Low, Efficiency Mode: Normal, Region A: 1.50-35.00, Region B: 1.50-256.00, Count Time (min.): 0.40, Background Subtract: none, Half-Life Correction: no, Quench Indicator: tSIS, Platemap blank subtraction: No, Cross talk reduction: Off). […]

T1 sequence (P31645 whole entry): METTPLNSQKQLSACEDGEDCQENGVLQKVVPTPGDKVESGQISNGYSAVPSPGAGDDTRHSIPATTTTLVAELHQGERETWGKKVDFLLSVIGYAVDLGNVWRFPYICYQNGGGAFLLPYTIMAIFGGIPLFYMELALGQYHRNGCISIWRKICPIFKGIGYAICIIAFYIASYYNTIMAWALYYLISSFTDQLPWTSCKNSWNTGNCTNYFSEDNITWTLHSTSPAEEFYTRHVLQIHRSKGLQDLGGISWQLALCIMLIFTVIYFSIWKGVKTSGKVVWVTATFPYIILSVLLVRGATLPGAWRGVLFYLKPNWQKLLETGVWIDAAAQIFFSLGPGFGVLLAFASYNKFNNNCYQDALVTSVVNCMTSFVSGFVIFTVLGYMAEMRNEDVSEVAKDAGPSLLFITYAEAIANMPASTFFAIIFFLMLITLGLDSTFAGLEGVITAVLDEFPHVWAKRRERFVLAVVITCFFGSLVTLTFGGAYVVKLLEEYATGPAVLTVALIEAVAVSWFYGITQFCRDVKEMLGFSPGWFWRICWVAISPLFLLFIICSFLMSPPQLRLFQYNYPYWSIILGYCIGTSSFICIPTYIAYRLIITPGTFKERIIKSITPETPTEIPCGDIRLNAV
T2 sequence (P23975 whole entry): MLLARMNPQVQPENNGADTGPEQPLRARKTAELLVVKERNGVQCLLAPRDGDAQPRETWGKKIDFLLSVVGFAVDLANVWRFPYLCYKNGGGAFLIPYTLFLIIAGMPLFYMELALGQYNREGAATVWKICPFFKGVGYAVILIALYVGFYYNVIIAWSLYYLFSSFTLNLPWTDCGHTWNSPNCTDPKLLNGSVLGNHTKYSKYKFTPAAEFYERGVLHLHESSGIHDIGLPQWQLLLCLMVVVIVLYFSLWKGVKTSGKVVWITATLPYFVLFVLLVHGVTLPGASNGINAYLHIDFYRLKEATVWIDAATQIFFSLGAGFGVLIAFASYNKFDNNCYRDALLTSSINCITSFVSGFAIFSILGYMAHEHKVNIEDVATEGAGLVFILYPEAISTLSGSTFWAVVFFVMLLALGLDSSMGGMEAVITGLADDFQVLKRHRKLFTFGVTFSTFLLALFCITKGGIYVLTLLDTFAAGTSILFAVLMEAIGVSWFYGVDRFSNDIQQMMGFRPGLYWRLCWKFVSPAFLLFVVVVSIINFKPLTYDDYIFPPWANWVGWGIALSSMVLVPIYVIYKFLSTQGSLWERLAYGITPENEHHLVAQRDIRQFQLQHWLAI

As usually defined, the IC50 is the concentration at which inhibition is half-maximal. In the case of `CNCC[C@@H](c1ccccc1)c1c[nH]c2nccc(OC)c12` [compound 23, [(S)-3-(4-Methoxy-1H-pyrrolo[2,3-b]pyridin-3-yl)-3-phenyl-propyl]-methyl-amine], the results for the IC50 in experiment [1] and in experiment [2] were roughly 1.78 nM and roughly 17.8 nM, respectively.

Values taken from patent US7638517B2, “3-Amino-1-arylpropyl azaindoles and uses thereof” (Roche Palo Alto LLC, priority 2005, dated 2009).
